According to patent US11638764B2, “Theranostic capture agents, compositions, and methods of using and making” (Indi Molecular, Inc., priority 2018, dated 2023):
Bridge positions count the residues as written; N and C are the ends. Square brackets hold non-standard residues; d marks the D form. Triazole bridges read from a SMILES are 1,4-linked. Ends that are not written are not given here. Peptide text beside a SMILES is read from it. Lys(N3) = [N-]=[N+]=NCCCC[C@H](N)C(=O)O; Pra = C#CC[C@H](N)C(=O)O

Experiments:
recombinant PSMA = recombinant PSMA (Homo sapiens, UniProt Q04609); assay: ELISA against recombinant PSMA protein; assay type: binding
Description: (§1) Hits resulting from the epitope 2 screen were also profiled by ELISA and flow.
(§2) Hits resulting from the epitope 3 screen were scaled up and subjected to ELISA and flow experiments.
(§3) Hits resulting from the epitope 4 screen were also profiled in ELISA and flow cytometry.
(§4) To increase the throughput of the screening step, three epitopes were mixed and screened against the pre-cleared library. PSMA epitopes 2C, 6, and 7 were mixed and picked by either an ImmPACT Vector Red or BCIP/NBT dye (FIG. 11). The ImmPACT Vector Red screen identified the hit peptide ehtye (SEQ ID NO:22). […] Further epitope selectivity can be deconvoluted via a single epitope orientation assay.

CD8 = assay: ELISA selectivity over an unrelated protein; assay type: binding
PC3 (PSMA−) cells = assay: Flow cytometry binding to PSMA- cells; assay type: cell-based
Description: as §1, §2, §4

LNCaP cells (PSMA+) = assay: Flow cytometry binding to PSMA+ cells; assay type: cell-based
Description: as §1, §2, §3, §4

[1] = test system: LNCaP cells (a PSMA+ cell line); assay: LNCaP cell adherence to hit beads; assay type: cell-based; conditions: on-bead peptide
[2] = target: T1, His-PSMA (Sino Biological) (Homo sapiens, UniProt Q04609); assay: ELISA, PSMA immobilized via His-tag, PCC titrated in solution; assay type: binding; conditions: biotin-PEG10-PEG10-peptide ligands
T1 construct: purchased Sino Biological
Description: (§5) Epitope 5 hits were tested for binding to PSMA by ELISA (PSMA immobilized; PCC titrated in solution). Two immobilization strategies were employed: a His-tag and Myc-Flag tag (His-PSMA (Sino Biological) and PSMA-Myc-Flag (Origene)).

PSMA-Myc-Flag (Origene) = target: T2, PSMA-Myc-Flag (Origene) (Homo sapiens, UniProt Q04609); assay: ELISA, PSMA immobilized via Myc-Flag tag, PCC titrated in solution; assay type: binding; conditions: biotin-PEG10-PEG10-peptide ligands
T2 construct: purchased Origene
Description: as §5

full length PSMA protein = target: T3, full length PSMA protein (Homo sapiens, UniProt Q04609); assay: Bead screen with 50 nM full length PSMA protein; assay type: binding; conditions: beads that did not bind LNCaP cells
T3 construct: were incubated with 50 nM full length PSMA protein
Description: Some beads were lost during this screen. Most beads turned purple. […] These will be evaluated further by calculating their binding affinities by docking against the screened epitopes 2C, 6, and 7. Clustering analysis was used to identify some interesting sequences. Sequences found in the periphery (pkvrd (SEQ ID NO:27), frvkd (SEQ ID NO:28), dyksk (SEQ ID NO:32), Grkpf (SEQ ID NO:35), kwndd (SEQ ID NO:36), tkGne (SEQ ID NO:39), kvetd (SEQ ID NO:41), neGfd (SEQ ID NO:42), ekfld (SEQ ID NO:43), dkkaw (SEQ ID NO:44), veyGn (SEQ ID NO:45)) are generally preferred because they are more interesting chemically.

recombinant PSMA, sequence (Q04609 whole entry): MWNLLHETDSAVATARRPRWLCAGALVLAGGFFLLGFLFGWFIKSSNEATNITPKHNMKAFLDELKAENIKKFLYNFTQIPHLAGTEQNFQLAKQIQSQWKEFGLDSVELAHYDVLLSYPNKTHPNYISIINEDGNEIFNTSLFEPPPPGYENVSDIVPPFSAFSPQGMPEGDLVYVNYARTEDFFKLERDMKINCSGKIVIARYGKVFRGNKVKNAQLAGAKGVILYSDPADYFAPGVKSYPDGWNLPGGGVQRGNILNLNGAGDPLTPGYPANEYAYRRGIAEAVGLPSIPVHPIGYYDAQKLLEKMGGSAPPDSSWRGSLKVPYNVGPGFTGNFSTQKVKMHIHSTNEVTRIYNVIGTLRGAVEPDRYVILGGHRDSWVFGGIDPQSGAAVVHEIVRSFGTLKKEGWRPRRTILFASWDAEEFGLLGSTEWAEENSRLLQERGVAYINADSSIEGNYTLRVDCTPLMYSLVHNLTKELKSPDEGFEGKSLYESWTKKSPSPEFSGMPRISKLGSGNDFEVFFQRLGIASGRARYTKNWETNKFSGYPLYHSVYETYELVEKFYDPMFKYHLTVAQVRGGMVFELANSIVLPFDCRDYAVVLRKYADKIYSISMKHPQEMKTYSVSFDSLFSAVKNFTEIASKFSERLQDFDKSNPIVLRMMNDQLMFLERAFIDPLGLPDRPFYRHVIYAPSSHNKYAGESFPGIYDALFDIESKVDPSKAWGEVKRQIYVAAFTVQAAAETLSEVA
T3 sequence (Q04609 whole entry): as above
T2 sequence (Q04609 whole entry): as above
T1 sequence (Q04609 whole entry): as above

Row | binding to recombinant PSMA by ELISA (recombinant PSMA) | Compound | binding to PC3 / PSMA− cells by flow (PC3 (PSMA−) cells) | binding to LNCaP (PSMA+) cells by flow (LNCaP cells (PSMA+)) | adherence of LNCaP cells to the bead [1] | other results
1 |  | ert: epitope 2A/2B hit1 (Table 3) ([dE]-[dR]-[dT]) | did not show binding | did not show binding |  | 
2 |  | ert dimer: dimer of epitope 2 hit ert, PEG10-ert-Tz-ert ([dE]-[dR]-[dT]; also: dimer: PEG10-ert-Tz-ert) | showed binding | showed binding |  | EC50 (recombinant PSMA; read-out: EC50 of binding to recombinant PSMA by ELISA): 769 nM
3 | no binding | kwtsd: LNCaP-adherent bead hit2 (Table 8) ([dK][dW][dT][dS][dD]) |  | no binding | good adherence | 
4 | no binding | dwpve: LNCaP-adherent bead hit1 (Table 8) ([dD][dW][dP][dV][dE]) |  | no binding | good adherence | 
5 |  | CC(=O)N[C@H]1Cc2cn(nn2)CCCC[C@@H](C(N)=O)NC(=O)[C@@H](Cc2c[nH]cn2)NC(=O)[C@@H](Cc2c[nH]cn2)NC(=O)[C@@H](CCCCN)NC(=O)[C@@H](Cc2ccccc2)NC(=O)[C@@H](CC(C)C)NC1=O [lfkhh] (Ac-[Pra][dL][dF][dK][dH][dH][Lys(N3)]-NH2; triazole 1-7; N-terminus and C-terminus assumed) | bound equally | bound equally |  | 
6 |  | CC(=O)N[C@H]1Cc2cn(nn2)CCCC[C@@H](C(N)=O)NC(=O)[C@@H](Cc2c[nH]c3ccccc23)NC(=O)[C@@H](Cc2c[nH]c3ccccc23)NC(=O)[C@@H](CCC(=O)O)NC(=O)[C@@H](CCCNC(=N)N)NC(=O)[C@@H](Cc2c[nH]cn2)NC1=O [hreww] (Ac-[Pra][dH][dR][dE][dW][dW][Lys(N3)]-NH2; triazole 1-7; N-terminus and C-terminus assumed) |  |  |  | binding to PSMA by ELISA [2]: nanomolar binding affinity; binding to PSMA by ELISA (PSMA-Myc-Flag (Origene)): nanomolar binding affinity
7 | no binding | dntwp: dark purple bead in full length PSMA screen ([dD][dN][dT][dW][dP]) |  | no binding |  | bead colour after incubation with PSMA protein (full length PSMA protein): darker than the others

Row | Compound | binding to recombinant PSMA by ELISA (recombinant PSMA) | binding to PC3 / PSMA− cells by flow (PC3 (PSMA−) cells) | binding to LNCaP (PSMA+) cells by flow (LNCaP cells (PSMA+)) | adherence of LNCaP cells to the bead [1] | other results
8 | ehtye: hit of ImmPACT Vector Red screen against mixed epitopes 2C, 6, 7 ([dE][dH][dT][dY][dE]) | Binding to recombinant PSMA protein was achieved | increased binding to PSMA− cells |  |  | selectivity for PSMA over an unrelated protein (CD8) (CD8): good selectivity
9 | svand: LNCaP-adherent bead hit3 (Table 8) ([dS][dV][dA][dN][dD]) | Binding to recombinant PSMA protein was achieved | same binding to both PSMA+ and PSMA− cells | modest | good adherence | selectivity for PSMA over an unrelated protein (CD8) (CD8): good selectivity
